In the NIST ThermoML archive (doi:10.1007/s10765-014-1598-0):

Tests used:
[1] = wn = mass fraction of the nth substance listed; details: Liquid, Parallel plate method
[2] = Liquid, Parallel plate method

O=P(O)(O)O [phosphoric acid] + O
[1]
Details | thermal conductivity [W/m/K]
291.42 K, 5000 kPa, w1 = 0.08 | 0.568
291.7 K, 15000 kPa, w1 = 0.08 | 0.578
292.71 K, 101 kPa, w1 = 0.5 | 0.482
293.15 K, 15000 kPa, w1 = 0.5 | 0.498
293.16 K, 101 kPa, w1 = 0.08 | 0.566
293.26 K, 5000 kPa, w1 = 0.5 | 0.489
294.15 K, 5000 kPa, w1 = 0.155 | 0.545
294.23 K, 15000 kPa, w1 = 0.155 | 0.556
294.32 K, 101 kPa, w1 = 0.155 | 0.529
298.48 K, 101 kPa, w1 = 0.08 | 0.575
300.86 K, 101 kPa, w1 = 0.5 | 0.493
303.03 K, 101 kPa, w1 = 0.155 | 0.545
310.72 K, 5000 kPa, w1 = 0.155 | 0.568
310.89 K, 15000 kPa, w1 = 0.155 | 0.58
312.81 K, 15000 kPa, w1 = 0.5 | 0.525
313.19 K, 5000 kPa, w1 = 0.5 | 0.516
313.91 K, 101 kPa, w1 = 0.08 | 0.597
313.94 K, 101 kPa, w1 = 0.155 | 0.561
314.07 K, 101 kPa, w1 = 0.155 | 0.563
315.13 K, 101 kPa, w1 = 0.5 | 0.514
315.16 K, 5000 kPa, w1 = 0.08 | 0.609
315.18 K, 15000 kPa, w1 = 0.08 | 0.613
320.54 K, 101 kPa, w1 = 0.08 | 0.607
321.54 K, 101 kPa, w1 = 0.155 | 0.571
329.59 K, 101 kPa, w1 = 0.5 | 0.53
330.24 K, 15000 kPa, w1 = 0.5 | 0.545
330.25 K, 101 kPa, w1 = 0.155 | 0.582
330.43 K, 5000 kPa, w1 = 0.5 | 0.54
332.5 K, 15000 kPa, w1 = 0.155 | 0.605
332.65 K, 5000 kPa, w1 = 0.155 | 0.592
334.07 K, 5000 kPa, w1 = 0.08 | 0.633
334.29 K, 15000 kPa, w1 = 0.08 | 0.641
339.46 K, 101 kPa, w1 = 0.5 | 0.538
342.35 K, 101 kPa, w1 = 0.155 | 0.598
342.83 K, 101 kPa, w1 = 0.08 | 0.63
343.21 K, 101 kPa, w1 = 0.155 | 0.599
345.9 K, 101 kPa, w1 = 0.08 | 0.634
350.37 K, 15000 kPa, w1 = 0.08 | 0.654
350.49 K, 5000 kPa, w1 = 0.08 | 0.646
352.63 K, 15000 kPa, w1 = 0.5 | 0.566
352.82 K, 5000 kPa, w1 = 0.5 | 0.569
352.88 K, 101 kPa, w1 = 0.155 | 0.607
353.04 K, 5000 kPa, w1 = 0.155 | 0.615
353.17 K, 15000 kPa, w1 = 0.155 | 0.622
354.94 K, 101 kPa, w1 = 0.5 | 0.55
355.76 K, 101 kPa, w1 = 0.08 | 0.642
360.16 K, 101 kPa, w1 = 0.155 | 0.613
360.21 K, 101 kPa, w1 = 0.155 | 0.614
363.17 K, 5000 kPa, w1 = 0.5 | 0.564
363.2 K, 15000 kPa, w1 = 0.5 | 0.572
364.06 K, 15000 kPa, w1 = 0.155 | 0.632
364.17 K, 5000 kPa, w1 = 0.155 | 0.626
364.98 K, 15000 kPa, w1 = 0.08 | 0.666
365.14 K, 5000 kPa, w1 = 0.08 | 0.667
369.33 K, 101 kPa, w1 = 0.08 | 0.65
370.07 K, 101 kPa, w1 = 0.155 | 0.618
372.13 K, 101 kPa, w1 = 0.5 | 0.56
380.77 K, 15000 kPa, w1 = 0.08 | 0.673
380.93 K, 5000 kPa, w1 = 0.08 | 0.669
383.41 K, 15000 kPa, w1 = 0.5 | 0.58
383.52 K, 5000 kPa, w1 = 0.5 | 0.575
385.14 K, 15000 kPa, w1 = 0.155 | 0.64
385.31 K, 5000 kPa, w1 = 0.155 | 0.636
397.89 K, 5000 kPa, w1 = 0.155 | 0.635
399.66 K, 15000 kPa, w1 = 0.5 | 0.583
399.84 K, 15000 kPa, w1 = 0.08 | 0.677
400.05 K, 5000 kPa, w1 = 0.08 | 0.672
400.07 K, 15000 kPa, w1 = 0.155 | 0.642
400.18 K, 5000 kPa, w1 = 0.5 | 0.58

O [water]
[2]
Details | thermal conductivity [W/m/K]
292.04 K, 101 kPa | 0.596
292.37 K, 5000 kPa | 0.599
292.41 K, 15000 kPa | 0.606
301.85 K, 101 kPa | 0.612
308.34 K, 101 kPa | 0.622
313.16 K, 5000 kPa | 0.634
313.35 K, 15000 kPa | 0.636
318.33 K, 101 kPa | 0.634
327.48 K, 101 kPa | 0.645
332.62 K, 15000 kPa | 0.657
332.85 K, 5000 kPa | 0.656
337.32 K, 101 kPa | 0.655
346.93 K, 101 kPa | 0.662
351.91 K, 5000 kPa | 0.671
353.17 K, 15000 kPa | 0.673
356.69 K, 101 kPa | 0.668
364.08 K, 5000 kPa | 0.679
364.53 K, 15000 kPa | 0.682
371.79 K, 101 kPa | 0.677
382.36 K, 15000 kPa | 0.688
382.41 K, 5000 kPa | 0.686
398.77 K, 5000 kPa | 0.688
399.64 K, 15000 kPa | 0.691

O [water] + O=P(O)(O)O
[1], w2 = 0
Details | thermal conductivity [W/m/K]
292.04 K, 101 kPa | 0.596
292.37 K, 5000 kPa | 0.599
292.41 K, 15000 kPa | 0.606
301.85 K, 101 kPa | 0.612
308.34 K, 101 kPa | 0.622
313.16 K, 5000 kPa | 0.634
313.35 K, 15000 kPa | 0.636
318.33 K, 101 kPa | 0.634
327.48 K, 101 kPa | 0.645
332.62 K, 15000 kPa | 0.657
332.85 K, 5000 kPa | 0.656
337.32 K, 101 kPa | 0.655
346.93 K, 101 kPa | 0.662
351.91 K, 5000 kPa | 0.671
353.17 K, 15000 kPa | 0.673
356.69 K, 101 kPa | 0.668
364.08 K, 5000 kPa | 0.679
364.53 K, 15000 kPa | 0.682
371.79 K, 101 kPa | 0.677
382.36 K, 15000 kPa | 0.688
382.41 K, 5000 kPa | 0.686
398.77 K, 5000 kPa | 0.688
399.64 K, 15000 kPa | 0.691
